Measurements taken from ChEMBL document CHEMBL1165953, “Synthesis and biological evaluation of 4(5)-(6-methylpyridin-2-yl)imidazoles and -pyrazoles as transforming growth factor-beta type 1 receptor kinase inhibitors” (Bioorg Med Chem, 2010).
pIC50: −log10 of the molar value. ≈ marks a conversion by molar mass, not a printed value.

Tests used:
[1] = Aqueous solubility in buffer solution at pH 1.2; format: physicochemical
[2] = target: Vascular endothelial growth factor receptor 1 (Homo sapiens, UniProt P17948); assay: Inhibition of VEGFR1
[3] = target: T1, TGF-beta receptor type-1 (Homo sapiens, UniProt P36897)
T1 sequence (P36897 whole entry): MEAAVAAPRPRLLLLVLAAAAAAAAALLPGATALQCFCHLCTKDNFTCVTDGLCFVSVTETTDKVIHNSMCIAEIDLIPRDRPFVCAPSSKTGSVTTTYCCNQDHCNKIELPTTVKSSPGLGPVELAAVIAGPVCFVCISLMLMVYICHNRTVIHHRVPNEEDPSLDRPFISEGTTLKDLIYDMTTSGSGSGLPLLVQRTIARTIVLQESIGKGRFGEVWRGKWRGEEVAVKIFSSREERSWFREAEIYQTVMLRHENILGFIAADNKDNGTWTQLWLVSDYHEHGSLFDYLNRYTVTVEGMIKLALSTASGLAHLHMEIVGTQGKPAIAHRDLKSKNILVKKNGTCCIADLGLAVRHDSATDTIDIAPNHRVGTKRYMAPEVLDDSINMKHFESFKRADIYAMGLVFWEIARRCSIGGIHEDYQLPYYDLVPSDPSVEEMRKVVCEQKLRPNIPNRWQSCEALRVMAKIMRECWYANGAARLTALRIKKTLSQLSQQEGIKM
Description: Inhibition of human recombinant GST-fused ALK5 expressed in Sf9 cells

[4] = target: Vascular endothelial growth factor receptor 2 (Homo sapiens, UniProt P35968); assay: Inhibition of VEGFR2
[5] = target: Mitogen-activated protein kinase 14 (Homo sapiens, UniProt Q16539)
[6] = Metabolic stability assessed as 3-((4-(2-hydroxyquinolin-6-yl)-5-(6-methylpyridin-2-yl)-1H-imidazol-2-yl)methyl)benzamide or 3-((4-(3-hydroxyquinolin-6-yl)-5-(6-methylpyridin-2-yl)-1H-imidazol-2-yl)methyl)benzamide levels at 120 uM by HPLC analysis in presence human recombinant CYP2C8; format: ADME; conditions: recombinant enzyme
[7] = target: Vascular endothelial growth factor receptor 3 (Homo sapiens, UniProt P35916); assay: Inhibition of VEGFR3
[8] = Metabolic stability assessed as 3-((4-(2-hydroxyquinolin-6-yl)-5-(6-methylpyridin-2-yl)-1H-imidazol-2-yl)methyl)benzamide or 3-((4-(3-hydroxyquinolin-6-yl)-5-(6-methylpyridin-2-yl)-1H-imidazol-2-yl)methyl)benzamide levels at 120 uM by HPLC analysis in presence human recombinant CYP3A4; format: ADME; conditions: recombinant enzyme
[9] = target: Platelet-derived growth factor receptor alpha (Homo sapiens, UniProt P16234); assay: Inhibition of PDGFRalpha
[10] = Metabolic stability assessed as 3-((4-(2-hydroxyquinolin-6-yl)-5-(6-methylpyridin-2-yl)-1H-imidazol-2-yl)methyl)benzamide or 3-((4-(3-hydroxyquinolin-6-yl)-5-(6-methylpyridin-2-yl)-1H-imidazol-2-yl)methyl)benzamide levels at 120 uM by HPLC analysis in presence human recombinant CYP2C19; format: ADME; conditions: recombinant enzyme
[11] = target: T2, Serine/threonine-protein kinase D1 (Homo sapiens, UniProt Q15139); assay: Inhibition of PKCmu
T2 sequence (Q15139 whole entry): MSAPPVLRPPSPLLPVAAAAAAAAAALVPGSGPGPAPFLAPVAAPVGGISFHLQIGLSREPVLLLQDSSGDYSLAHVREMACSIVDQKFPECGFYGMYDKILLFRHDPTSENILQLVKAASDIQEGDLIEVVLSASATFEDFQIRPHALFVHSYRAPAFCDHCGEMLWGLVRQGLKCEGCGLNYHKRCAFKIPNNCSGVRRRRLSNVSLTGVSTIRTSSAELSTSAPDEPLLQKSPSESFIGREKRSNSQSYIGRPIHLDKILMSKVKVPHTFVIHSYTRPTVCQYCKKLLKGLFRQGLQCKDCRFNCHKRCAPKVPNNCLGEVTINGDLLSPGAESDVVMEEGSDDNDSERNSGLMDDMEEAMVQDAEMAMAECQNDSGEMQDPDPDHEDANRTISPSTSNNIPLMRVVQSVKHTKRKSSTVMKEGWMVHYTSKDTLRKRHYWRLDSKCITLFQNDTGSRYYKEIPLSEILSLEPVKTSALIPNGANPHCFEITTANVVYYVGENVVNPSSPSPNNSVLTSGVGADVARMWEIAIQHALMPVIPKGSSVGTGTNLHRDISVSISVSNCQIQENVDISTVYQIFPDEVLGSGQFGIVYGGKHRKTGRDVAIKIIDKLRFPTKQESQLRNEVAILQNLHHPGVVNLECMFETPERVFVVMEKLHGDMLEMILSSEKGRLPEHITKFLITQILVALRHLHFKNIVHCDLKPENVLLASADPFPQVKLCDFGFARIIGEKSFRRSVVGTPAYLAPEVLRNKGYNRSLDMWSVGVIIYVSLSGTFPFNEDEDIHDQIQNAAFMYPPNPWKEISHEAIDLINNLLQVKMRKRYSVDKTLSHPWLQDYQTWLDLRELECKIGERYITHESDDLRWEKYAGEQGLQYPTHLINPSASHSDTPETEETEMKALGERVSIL

[12] = Metabolic stability assessed as 3-((4-(2-hydroxyquinoxalin- 6-yl)-5-(6-methylpyridin-2-yl)-1H-imidazol-2-yl)methyl)benzamide or 3-((4-(3-hydroxyquinoxalin-6-yl)-5-(6-methylpyridin-2-yl)- 1H-imidazol-2-yl)methyl)benzamide) levels at 120 uM by HPLC analysis in presence human recombinant CYP2C19; format: ADME; conditions: recombinant enzyme
[13] = Metabolic stability assessed as 3-((4-(2-hydroxyquinoxalin- 6-yl)-5-(6-methylpyridin-2-yl)-1H-imidazol-2-yl)methyl)benzamide or 3-((4-(3-hydroxyquinoxalin-6-yl)-5-(6-methylpyridin-2-yl)- 1H-imidazol-2-yl)methyl)benzamide) levels at 120 uM by HPLC analysis in presence human recombinant CYP2C8; format: ADME; conditions: recombinant enzyme
[14] = Metabolic stability assessed as 3-((4-(2-hydroxyquinoxalin- 6-yl)-5-(6-methylpyridin-2-yl)-1H-imidazol-2-yl)methyl)benzamide or 3-((4-(3-hydroxyquinoxalin-6-yl)-5-(6-methylpyridin-2-yl)- 1H-imidazol-2-yl)methyl)benzamide) levels at 120 uM by HPLC analysis in presence human recombinant CYP3A4; format: ADME; conditions: recombinant enzyme
[15] = Metabolic stability assessed as 3-((4-(2-hydroxyquinoxalin- 6-yl)-5-(6-methylpyridin-2-yl)-1H-imidazol-2-yl)methyl)benzamide or 3-((4-(3-hydroxyquinoxalin-6-yl)-5-(6-methylpyridin-2-yl)- 1H-imidazol-2-yl)methyl)benzamide) levels at 120 uM by HPLC analysis in presence human recombinant CYP2D6; format: ADME; conditions: recombinant enzyme

Chain of Mitogen-activated protein kinase 14 (Q16539 whole entry): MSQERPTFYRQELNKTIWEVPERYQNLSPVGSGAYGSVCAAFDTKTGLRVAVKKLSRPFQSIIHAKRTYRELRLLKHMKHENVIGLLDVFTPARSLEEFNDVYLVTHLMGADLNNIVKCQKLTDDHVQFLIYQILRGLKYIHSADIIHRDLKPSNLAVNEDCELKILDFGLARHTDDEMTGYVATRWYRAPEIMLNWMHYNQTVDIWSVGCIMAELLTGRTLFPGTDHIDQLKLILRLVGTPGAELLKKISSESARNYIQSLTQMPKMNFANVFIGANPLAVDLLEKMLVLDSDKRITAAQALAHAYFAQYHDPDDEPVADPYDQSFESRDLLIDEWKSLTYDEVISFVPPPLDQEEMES
Chain of Vascular endothelial growth factor receptor 2 (P35968 whole entry): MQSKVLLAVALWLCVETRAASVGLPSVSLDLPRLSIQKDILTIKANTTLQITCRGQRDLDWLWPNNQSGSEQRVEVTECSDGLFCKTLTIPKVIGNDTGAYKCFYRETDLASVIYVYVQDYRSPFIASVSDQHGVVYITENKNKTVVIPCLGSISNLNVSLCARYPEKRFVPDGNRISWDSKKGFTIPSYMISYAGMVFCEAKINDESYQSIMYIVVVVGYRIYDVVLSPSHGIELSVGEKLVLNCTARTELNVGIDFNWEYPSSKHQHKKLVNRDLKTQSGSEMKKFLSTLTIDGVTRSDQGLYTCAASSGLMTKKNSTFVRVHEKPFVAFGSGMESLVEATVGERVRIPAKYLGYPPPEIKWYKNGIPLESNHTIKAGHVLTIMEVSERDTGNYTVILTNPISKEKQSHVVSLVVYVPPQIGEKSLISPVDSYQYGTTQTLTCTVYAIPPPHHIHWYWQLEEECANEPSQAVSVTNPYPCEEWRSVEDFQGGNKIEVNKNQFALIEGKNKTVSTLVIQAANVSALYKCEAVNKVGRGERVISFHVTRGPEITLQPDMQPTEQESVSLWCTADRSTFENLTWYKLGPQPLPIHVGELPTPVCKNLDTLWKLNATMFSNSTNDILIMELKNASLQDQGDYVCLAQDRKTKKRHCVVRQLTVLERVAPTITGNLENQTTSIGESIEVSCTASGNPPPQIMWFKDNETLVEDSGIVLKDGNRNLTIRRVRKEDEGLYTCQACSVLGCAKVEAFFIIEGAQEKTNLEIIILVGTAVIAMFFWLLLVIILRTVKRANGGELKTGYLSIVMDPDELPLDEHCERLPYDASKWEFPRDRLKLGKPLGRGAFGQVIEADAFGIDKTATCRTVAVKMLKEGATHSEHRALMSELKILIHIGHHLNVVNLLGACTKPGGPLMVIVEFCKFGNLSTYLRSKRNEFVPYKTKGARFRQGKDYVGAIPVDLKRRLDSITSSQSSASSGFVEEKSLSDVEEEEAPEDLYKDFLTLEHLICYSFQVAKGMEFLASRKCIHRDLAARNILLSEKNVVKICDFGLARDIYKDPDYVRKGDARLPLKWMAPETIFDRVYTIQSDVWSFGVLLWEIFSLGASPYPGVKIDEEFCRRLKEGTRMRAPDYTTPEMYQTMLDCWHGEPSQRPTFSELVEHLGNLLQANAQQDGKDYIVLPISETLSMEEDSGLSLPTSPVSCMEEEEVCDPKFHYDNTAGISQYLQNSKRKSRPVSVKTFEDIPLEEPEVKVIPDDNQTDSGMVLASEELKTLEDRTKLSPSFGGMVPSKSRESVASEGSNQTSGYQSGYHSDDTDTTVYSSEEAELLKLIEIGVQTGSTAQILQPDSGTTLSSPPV
Chain of Vascular endothelial growth factor receptor 1 (P17948 whole entry): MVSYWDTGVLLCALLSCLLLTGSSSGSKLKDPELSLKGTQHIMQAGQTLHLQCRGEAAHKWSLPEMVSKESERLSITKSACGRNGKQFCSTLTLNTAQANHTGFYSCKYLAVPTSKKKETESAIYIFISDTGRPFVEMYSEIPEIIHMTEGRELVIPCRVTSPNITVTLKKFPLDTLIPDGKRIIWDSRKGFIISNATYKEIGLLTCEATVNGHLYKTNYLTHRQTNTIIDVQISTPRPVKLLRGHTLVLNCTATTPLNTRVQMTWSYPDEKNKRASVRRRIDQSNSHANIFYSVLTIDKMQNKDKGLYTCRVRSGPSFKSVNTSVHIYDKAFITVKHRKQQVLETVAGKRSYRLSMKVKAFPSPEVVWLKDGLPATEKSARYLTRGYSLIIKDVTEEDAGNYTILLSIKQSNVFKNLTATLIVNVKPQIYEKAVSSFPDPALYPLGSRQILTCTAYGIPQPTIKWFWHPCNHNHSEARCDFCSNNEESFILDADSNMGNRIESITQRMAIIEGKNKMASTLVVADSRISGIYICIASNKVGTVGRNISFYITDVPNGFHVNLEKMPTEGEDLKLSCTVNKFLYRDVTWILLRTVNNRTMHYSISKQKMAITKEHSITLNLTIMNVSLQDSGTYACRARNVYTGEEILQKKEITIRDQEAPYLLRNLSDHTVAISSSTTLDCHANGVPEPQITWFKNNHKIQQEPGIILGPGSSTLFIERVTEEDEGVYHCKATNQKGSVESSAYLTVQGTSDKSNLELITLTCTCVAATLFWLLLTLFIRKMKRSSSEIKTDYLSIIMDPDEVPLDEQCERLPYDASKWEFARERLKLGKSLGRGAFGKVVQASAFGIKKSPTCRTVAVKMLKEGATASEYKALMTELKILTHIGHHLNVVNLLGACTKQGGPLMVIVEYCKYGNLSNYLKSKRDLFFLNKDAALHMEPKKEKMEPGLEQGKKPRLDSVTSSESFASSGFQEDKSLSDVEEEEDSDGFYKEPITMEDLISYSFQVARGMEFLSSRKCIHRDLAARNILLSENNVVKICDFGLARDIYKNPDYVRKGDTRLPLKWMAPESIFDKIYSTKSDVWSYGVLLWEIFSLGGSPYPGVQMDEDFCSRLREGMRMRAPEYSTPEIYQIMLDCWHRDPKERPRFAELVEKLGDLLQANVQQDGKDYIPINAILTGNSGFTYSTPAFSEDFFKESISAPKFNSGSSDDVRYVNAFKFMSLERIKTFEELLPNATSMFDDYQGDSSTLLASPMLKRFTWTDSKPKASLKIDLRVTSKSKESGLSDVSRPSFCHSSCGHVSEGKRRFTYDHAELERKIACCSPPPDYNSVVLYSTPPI
Chain of Vascular endothelial growth factor receptor 3 (P35916 whole entry): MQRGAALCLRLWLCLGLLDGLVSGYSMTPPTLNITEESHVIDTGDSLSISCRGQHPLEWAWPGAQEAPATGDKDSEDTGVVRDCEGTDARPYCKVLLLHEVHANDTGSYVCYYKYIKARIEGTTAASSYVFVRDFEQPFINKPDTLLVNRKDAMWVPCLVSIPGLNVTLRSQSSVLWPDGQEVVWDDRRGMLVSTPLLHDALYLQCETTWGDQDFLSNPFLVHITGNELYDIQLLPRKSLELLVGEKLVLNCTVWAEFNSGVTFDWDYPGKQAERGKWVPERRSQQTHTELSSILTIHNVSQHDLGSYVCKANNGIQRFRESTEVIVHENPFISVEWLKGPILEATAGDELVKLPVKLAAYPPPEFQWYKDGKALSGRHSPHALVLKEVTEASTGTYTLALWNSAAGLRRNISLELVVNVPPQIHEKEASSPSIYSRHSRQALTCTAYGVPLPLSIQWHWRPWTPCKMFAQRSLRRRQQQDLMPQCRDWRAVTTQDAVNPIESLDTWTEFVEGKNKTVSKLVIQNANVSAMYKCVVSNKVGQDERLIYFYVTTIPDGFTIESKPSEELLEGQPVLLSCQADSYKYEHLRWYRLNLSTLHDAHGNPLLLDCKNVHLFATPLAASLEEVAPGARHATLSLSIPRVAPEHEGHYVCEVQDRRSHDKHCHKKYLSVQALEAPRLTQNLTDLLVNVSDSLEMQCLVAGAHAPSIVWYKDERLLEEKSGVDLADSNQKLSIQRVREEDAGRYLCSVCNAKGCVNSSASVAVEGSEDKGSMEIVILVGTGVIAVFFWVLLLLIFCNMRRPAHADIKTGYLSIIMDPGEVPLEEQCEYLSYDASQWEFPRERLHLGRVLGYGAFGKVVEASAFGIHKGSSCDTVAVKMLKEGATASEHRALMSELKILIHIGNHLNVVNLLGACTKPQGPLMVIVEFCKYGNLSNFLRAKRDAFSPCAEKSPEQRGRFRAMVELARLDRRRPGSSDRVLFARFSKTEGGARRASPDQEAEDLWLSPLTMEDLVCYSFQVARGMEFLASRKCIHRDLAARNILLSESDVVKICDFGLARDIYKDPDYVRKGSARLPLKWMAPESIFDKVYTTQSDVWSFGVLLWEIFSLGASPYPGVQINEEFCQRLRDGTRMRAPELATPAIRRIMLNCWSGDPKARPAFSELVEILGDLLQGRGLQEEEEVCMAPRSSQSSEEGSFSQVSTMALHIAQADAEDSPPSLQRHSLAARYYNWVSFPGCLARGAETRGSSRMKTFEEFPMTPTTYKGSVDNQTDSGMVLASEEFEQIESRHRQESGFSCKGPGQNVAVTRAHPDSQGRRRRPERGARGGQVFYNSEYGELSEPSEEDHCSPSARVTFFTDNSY

Stability [12] [peak area] | Stability [13] [peak area] | Stability [14] [peak area] | Stability [15] [peak area] | Structure (SMILES) | solubility [1] [mg/mL] | pIC50 [2] | pIC50 [3] | pIC50 [4] | pIC50 [5] | Stability [6] [peak area] | pIC50 [7] | Stability [8] [peak area] | pIC50 [9] | Stability [10] [peak area] | pIC50 [11]
 |  |  |  | Cc1cccc(-c2[nH]c(Cc3cccc(C#N)c3)nc2-c2ccc3ncccc3c2)n1 | 7.1 (≈ 17.7 mM) |  |  |  |  |  |  |  |  |  | 
 |  |  |  | Cc1cccc(-c2nc(Cc3cccc(C(N)=O)c3)[nH]c2-c2ccc3ncccc3c2)n1 | 14.3 (≈ 34.1 mM) | 5.68 | 7.47 | 5.66 | 6.27 | 1.99 | 6.03 | 10.6 | 5.52 | 11.3 | 6.19
12.4 | 33.4 | 17 | 15.4 | Cc1cccc(-c2[nH]c(Cc3cccc(C(N)=O)c3)nc2-c2ccc3nccnc3c2)n1 |  |  |  |  |  |  |  |  |  |  | 
